Data taken from ChEMBL document CHEMBL1127643, “Mechanism-based design, synthesis, and in vitro antimalarial testing of new 4-methylated trioxanes structurally related to artemisinin: the importance of a carbon-centered radical for antimalarial activity” (J Med Chem, 1994).
Converted amounts (≈) assume the structure as drawn.

Key:
Plasmodium falciparum [1] = assay: In vitro antimalarial activity against Plasmodium falciparum W-2 Indochina; format: functional, organism-based
Plasmodium falciparum [2] = assay: In vitro antimalarial activity against Plasmodium falciparum D6 Africa; format: functional, organism-based

CO[C@H]1O[C@]2(C)OO[C@]13[C@H](CCO)CCC[C@@H]3C[C@H]2C
IC50 (Plasmodium falciparum [1]): > 500 ng/mL
IC50 (Plasmodium falciparum [2]): > 500 ng/mL

CO[C@H]1O[C@]2(C)OO[C@]13[C@H](CCO)CCC[C@@H]3CC2(C)C
IC50 (Plasmodium falciparum [1]): > 500 ng/mL
IC50 (Plasmodium falciparum [2]): > 500 ng/mL

CO[C@H]1O[C@]2(C)OO[C@]13[C@H](CCOCc1ccccc1)CCC[C@@H]3CC2(C)C
IC50 (Plasmodium falciparum [1]): > 500 ng/mL
IC50 (Plasmodium falciparum [2]): > 500 ng/mL

CO[C@H]1O[C@]2(C)OO[C@]13[C@H](CCO)CCC[C@@H]3C[C@@H]2C
IC50 (Plasmodium falciparum [1]): 4.5 ng/mL (≈ 0.0157 µM)
IC50 (Plasmodium falciparum [2]): 3.5 ng/mL (≈ 0.0122 µM)

C[C@@H]1CC[C@H]2[C@@H](C)C(=O)O[C@@H]3O[C@@]4(C)CC[C@@H]1[C@]32OO4 [ARTEMISININ]
IC50 (Plasmodium falciparum [1]): 8 ng/mL (≈ 0.0283 µM)
IC50 (Plasmodium falciparum [2]): 8 ng/mL (≈ 0.0283 µM)
